Laboratory results reported in patent US11414404B2, “Compounds for the treatment of BRAF-associated diseases and disorders” (Array BioPharma Inc., priority 2019, dated 2022).

Columns and labels:
P-gp (MDR1) = P-gp (MDR1) (Homo sapiens (Human), UniProt P08183); experiment: MDR1 LLC-PK1 permeability assay: efflux ratio; conditions: pig, LLC-PK1
Protocol: (§4) Both LLC-PK1 and MDR1 transfected LLC-PK1 cells were cultured and plated according to manufacturer's recommendations with the exception that the passage media contained only 2% fetal bovine serum to extend passage time out to seven days.
(§5) Both positive and negative controls were used to assess functionality of P-gp or BCRP efflux in the assays. […] Final organic concentration in the assay was 1%. All dosing solutions contained 10 μM lucifer yellow to monitor LLC-PK1 or MDCKII cell monolayer integrity.
(§6) For the apical to basolateral determination (A to B), 75 μL of the test article in transport buffer were added to the apical side of the individual transwells and 250 μL of basolateral media, without compound or lucifer yellow, were added to each well. For the basolateral to apical determination (B to A), 250 μL of test article in transport buffer were added to each well and 75 μL transport buffer, without compound or lucifer yellow, were added to each transwell. All tests were performed in triplicate, and each compound was tested for both apical to basolateral and basolateral to apical transport. The plates were incubated for 2 hours on a Lab-Line Instruments Titer Orbital Shaker (VWR, West Chester, Pa.) at 50 rpm and 37° C. with 5% CO2. All culture plates were removed from the incubator and 50 μL of media were removed from the apical and basolateral portion of each well and added to 150 μL of 1 μM labetalol in 2:1 acetonitrile (acetonitrile): H2O, v/v.
(§7) These values were accepted when found to be below 2% for apical to basolateral and 5% basolateral to apical flux across the MDR1-transfected LLC-PK1 or BCRP-transfected MDCKII cell monolayers. The plates were sealed and the contents of each well analyzed by LC-MS/MS. The compound concentrations were determined from the ratio of the peak areas of the compound to the internal standard (labetalol) in comparison to the dosing solution.
(§8) The LC-MS/MS system was comprised of an HTS-PAL autosampler (Leap Technologies, Carrboro, N.C.), an HP1200 HPLC (Agilent, Palo Alto, Calif.), and a MDS Sciex 4000 Q Trap system (Applied Biosystems, Foster City, Calif.). […] The total run time, including re-equilibration, for a single injection was 1.2 minutes. Mass spectrometric detection of the analytes was accomplished using the ion spray positive mode.
An efflux ratio is calculated from the mean apical to basolateral (A−B) Papp data and basolateral to apical (B−A) Papp data: Efflux ratio=Papp(B−A)/Papp(A−B)

[1] = PK (free brain-to-free plasma ratio) (mouse); format: in vivo; conditions: mouse; unbound brain-to-unbound plasma concentration ratio; male CD-1 mice; oral gavage 10 mg/kg; sampling 2-24 hours; read-out: B/P ratio (free)
Protocol: PK (Free Brain-to-Free Plasma Ratio) (Mouse)
The ability of representative compounds to penetrate the BBB in mice was determined by evaluating the unbound brain-to-unbound plasma (also referred to as free brain-to-free plasma) concentration ratio in male CD-1 mice.
Brain samples were stored at −20±5° C. prior to analysis. Concentrations of test compound in mouse brain homogenate were determined by liquid chromatography tandem mass spectrometry (LC-MS/MS) following protein precipitation with acetonitrile. A 12-point calibration curve, ranging from 0.5 to 10,000 ng/mL, was prepared in duplicate. A solution of 400 μg/mL of test compound in dimethyl sulfoxide (DMSO) was serially diluted (3-fold) in 100% DMSO, and then 2.5 μL of each standard solution was added to 100 μL of naïve male CD-1 mice brain homogenate. To mimic the extraction in the standard curve, 2.5 μL of DMSO was added to all test samples. Both calibration and test brain homogenate samples were spiked with 10 μL of an IS (1 μg/mL of a structural analog). Brain homogenate was generated by adding 0.75 mL of 4:1 water:MeOH to each brain sample followed by homogenization for 1 minute with bead beater tubes a 6 m/s using an MP Fast Prep-24®. Proteins were precipitated from 100 μL of brain homogenate sample by the addition of 300 μL of acetonitrile. […] A 100 μL aliquot of each supernatant was transferred via a 550 μL Personal Pipettor (Apricot Designs, Monrovia, Calif.) to 96-well plates and diluted 1:1 with HPLC grade water. The resulting plates were sealed with aluminum for LC-MS/MS analysis.
Brain-to-plasma ratios were calculated using the concentration of compound measured in the brain divided by the concentration of compound measured in the plasma. Brain-to-plasma ratios were always generated from a single animal and time point. Free brain-to-free plasma ratios were calculated by multiplying the brain-to-plasma ratio by the in vitro brain homogenate free fraction divided by the in vitro plasma free fraction using the following equation: (B/P)*(Bfu/Pfu).

[2] = MDR1 LLC-PK1 and BCRP MDCKII permeability assay: permeability coefficient (Papp)
Protocol: as §4
BCRP transfected MDCKII cells were cultured and plated according to manufacturer's recommendations. Assay conditions included with and without the BCRP-specific inhibitor, K0143, at a concentration of 0.3 μM to ascertain the contribution of BCRP to the efflux value of the test compound.
as §5, §6, §7, §8
where Cd, V, t and C0 are the detected concentration (μM), the volume on the dosing side (mL); the incubation time (s) and the initial dosing concentration (μM), respectively. The calculations for Papp were made for each replicate and then averaged.

[3] = target: N-terminally GST-tagged B-Raf(V600K) (Homo sapiens, UniProt P15056, V600K); experiment: BRAF V600K enzyme assay (TR-FRET competitive displacement of fluorescent tracer); format: binding; conditions: averaged IC50; 60 min at ambient temperature; 11-point dosing, top dose 10 μM
Sequence of N-terminally GST-tagged B-Raf(V600K) (P15056 2-766 V600K limits assumed): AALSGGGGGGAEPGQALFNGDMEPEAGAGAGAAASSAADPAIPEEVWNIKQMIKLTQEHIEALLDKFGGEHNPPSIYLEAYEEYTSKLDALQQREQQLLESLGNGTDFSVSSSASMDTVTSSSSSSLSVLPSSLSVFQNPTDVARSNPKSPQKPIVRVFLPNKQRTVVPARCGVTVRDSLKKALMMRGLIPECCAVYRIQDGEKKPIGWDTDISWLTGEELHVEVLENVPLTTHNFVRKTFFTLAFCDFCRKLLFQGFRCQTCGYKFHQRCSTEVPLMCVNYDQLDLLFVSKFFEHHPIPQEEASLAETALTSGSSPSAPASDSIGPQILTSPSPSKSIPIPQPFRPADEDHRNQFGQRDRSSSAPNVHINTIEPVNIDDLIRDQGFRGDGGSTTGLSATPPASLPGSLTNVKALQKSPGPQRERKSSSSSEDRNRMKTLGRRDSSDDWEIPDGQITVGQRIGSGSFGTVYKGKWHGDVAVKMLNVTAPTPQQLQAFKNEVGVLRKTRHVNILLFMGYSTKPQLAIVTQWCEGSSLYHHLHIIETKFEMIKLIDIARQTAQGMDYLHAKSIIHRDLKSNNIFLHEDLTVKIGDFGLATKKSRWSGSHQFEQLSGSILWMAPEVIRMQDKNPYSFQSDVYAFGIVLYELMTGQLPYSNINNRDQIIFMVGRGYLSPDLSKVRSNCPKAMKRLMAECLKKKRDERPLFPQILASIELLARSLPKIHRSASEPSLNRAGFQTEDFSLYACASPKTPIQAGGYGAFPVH
Description: (§1) A competitive displacement assay was configured for B-Raf that monitors the amount of a fluorescently-tagged “tracer” bound to B-Raf via TR-FRET from an anti-tag Eu-labeled antibody also bound to B-Raf.
(§2) [formula] • where: • Xmax Average Uninhibited Controls • Xmin Average Background
(§3) A 4-parameter logistic model was the fit to the POC data for each compound.

BCRP = BCRP (Homo sapiens (Human), UniProt Q9UNQ0); experiment: BCRP MDCKII permeability assay: efflux ratio; conditions: dog
Sequence of BCRP (Q9UNQ0 whole entry, species assumed): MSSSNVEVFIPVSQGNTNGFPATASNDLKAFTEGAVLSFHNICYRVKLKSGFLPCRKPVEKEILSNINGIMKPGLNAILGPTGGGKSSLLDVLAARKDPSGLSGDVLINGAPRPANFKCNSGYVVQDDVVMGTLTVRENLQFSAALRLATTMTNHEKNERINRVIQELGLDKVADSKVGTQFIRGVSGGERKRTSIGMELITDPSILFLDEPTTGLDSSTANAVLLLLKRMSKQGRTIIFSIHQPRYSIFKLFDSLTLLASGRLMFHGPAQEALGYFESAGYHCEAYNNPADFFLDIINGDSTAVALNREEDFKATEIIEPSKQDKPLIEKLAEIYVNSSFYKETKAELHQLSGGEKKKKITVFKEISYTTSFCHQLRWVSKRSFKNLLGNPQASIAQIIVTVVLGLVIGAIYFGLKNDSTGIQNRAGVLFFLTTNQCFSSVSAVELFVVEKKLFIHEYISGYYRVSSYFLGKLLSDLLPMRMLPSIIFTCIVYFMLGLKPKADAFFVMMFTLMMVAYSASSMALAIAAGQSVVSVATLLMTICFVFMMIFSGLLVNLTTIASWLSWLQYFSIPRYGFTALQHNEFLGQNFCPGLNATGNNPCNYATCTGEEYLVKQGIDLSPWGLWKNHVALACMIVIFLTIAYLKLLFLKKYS

[4] = target: full-length FLAG-tagged B-Raf(V600E) (Homo sapiens (Human), UniProt P15056, V600E); experiment: BRAF V600E enzyme assay (TR-FRET competitive displacement of fluorescent tracer); format: binding; conditions: averaged IC50; 60 min at ambient temperature; 11-point dosing, top dose 10 μM
Sequence of full-length FLAG-tagged B-Raf(V600E) (P15056 whole entry V600E): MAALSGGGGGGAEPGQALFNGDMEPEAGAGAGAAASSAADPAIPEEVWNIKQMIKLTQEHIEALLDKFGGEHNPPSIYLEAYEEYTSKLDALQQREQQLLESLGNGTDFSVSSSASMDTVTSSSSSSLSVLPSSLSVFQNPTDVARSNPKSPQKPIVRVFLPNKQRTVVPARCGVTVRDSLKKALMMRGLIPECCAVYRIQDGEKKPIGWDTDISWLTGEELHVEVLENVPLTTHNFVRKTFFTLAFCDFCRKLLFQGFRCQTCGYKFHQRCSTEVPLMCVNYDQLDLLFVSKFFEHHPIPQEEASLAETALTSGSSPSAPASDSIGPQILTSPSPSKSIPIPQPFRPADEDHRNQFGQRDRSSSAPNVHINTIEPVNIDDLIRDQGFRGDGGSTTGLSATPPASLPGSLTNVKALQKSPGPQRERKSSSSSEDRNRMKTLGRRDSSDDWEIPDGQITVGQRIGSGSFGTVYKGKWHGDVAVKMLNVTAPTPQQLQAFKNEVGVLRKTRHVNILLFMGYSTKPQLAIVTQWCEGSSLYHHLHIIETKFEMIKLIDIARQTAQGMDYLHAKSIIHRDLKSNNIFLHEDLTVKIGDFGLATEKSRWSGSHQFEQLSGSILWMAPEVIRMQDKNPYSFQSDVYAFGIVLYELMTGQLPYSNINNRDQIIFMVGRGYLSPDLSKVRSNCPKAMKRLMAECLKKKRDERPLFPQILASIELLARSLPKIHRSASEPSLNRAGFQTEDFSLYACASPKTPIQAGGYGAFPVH
Description: as §1, §2, §3

Sequence of P-gp (MDR1) (P08183 whole entry, species assumed): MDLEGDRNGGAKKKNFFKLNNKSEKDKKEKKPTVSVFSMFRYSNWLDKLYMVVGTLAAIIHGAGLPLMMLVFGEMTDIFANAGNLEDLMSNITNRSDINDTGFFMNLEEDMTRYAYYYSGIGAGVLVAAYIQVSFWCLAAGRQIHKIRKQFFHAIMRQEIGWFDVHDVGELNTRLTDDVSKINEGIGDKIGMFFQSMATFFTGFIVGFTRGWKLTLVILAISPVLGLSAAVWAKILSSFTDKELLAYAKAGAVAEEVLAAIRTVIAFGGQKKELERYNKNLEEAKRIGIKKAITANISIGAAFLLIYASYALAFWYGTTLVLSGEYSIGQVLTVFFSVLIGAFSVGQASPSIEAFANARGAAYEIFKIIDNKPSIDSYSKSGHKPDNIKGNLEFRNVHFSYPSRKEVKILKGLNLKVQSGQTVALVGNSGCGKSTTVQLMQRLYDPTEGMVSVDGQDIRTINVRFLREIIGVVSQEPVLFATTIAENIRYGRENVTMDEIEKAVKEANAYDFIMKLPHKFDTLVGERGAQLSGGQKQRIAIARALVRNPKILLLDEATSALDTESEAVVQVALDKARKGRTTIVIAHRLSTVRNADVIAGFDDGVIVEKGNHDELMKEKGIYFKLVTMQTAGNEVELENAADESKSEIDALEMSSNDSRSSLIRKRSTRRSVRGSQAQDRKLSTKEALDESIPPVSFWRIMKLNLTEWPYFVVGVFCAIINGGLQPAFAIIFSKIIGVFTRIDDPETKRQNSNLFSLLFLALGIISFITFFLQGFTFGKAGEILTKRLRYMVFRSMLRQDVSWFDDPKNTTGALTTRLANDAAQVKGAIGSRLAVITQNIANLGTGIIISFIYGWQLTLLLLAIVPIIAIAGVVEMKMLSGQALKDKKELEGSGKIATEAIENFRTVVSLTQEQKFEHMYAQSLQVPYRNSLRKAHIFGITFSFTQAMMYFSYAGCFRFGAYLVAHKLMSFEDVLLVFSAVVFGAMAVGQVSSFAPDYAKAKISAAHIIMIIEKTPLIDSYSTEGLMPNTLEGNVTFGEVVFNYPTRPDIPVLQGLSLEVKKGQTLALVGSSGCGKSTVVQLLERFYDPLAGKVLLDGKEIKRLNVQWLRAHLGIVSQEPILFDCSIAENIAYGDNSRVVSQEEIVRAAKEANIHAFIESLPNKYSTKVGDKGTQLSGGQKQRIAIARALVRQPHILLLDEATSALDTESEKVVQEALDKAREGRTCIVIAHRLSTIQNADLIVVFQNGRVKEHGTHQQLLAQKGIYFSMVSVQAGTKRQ

Row | SMILES | efflux ratio at 2 h, 1 µM (P-gp (MDR1)) | Kp,uu (unbound brain/unbound plasma ratio) [1] | Papp at 2 h, 1 µM [2] | IC50 [3] | efflux ratio at 2 h, 1 µM (BCRP) | IC50 [4]
1 | CCCS(=O)(=O)Nc1ccc(F)c(Nc2ccc3ncn(C)c(=O)c3c2C)c1F [Example 1, N-(3-((3,5-dimethyl-4-oxo-3,4-dihydroquinazolin-6-yl)amino)-2,4-difluorophenyl)propane-1-sulfonamide] | 1.68 | 0.3 to 0.62 | 34.9 ×10⁻⁶ cm/s | 8.5 nM | 3.4 | 42.7 nM
2 | Cc1c(Nc2cccc(NS(=O)(=O)CCCF)c2Cl)ccc2ncn(C)c(=O)c12 [Example 4] | 1.14 | 0.35 to 1.6 | 34.5 ×10⁻⁶ cm/s | 8.1 nM | 1.85 | 16.1 nM
3 | CCCS(=O)(=O)Nc1cc(F)c(F)c(Nc2ccc3ncn(C)c(=O)c3c2C)c1Cl [Example 7, N-(2-chloro-3-((3,5-dimethyl-4-oxo-3,4-dihydroquinazolin-6-yl)amino)-4,5-difluorophenyl)propane-1-sulfonamide] | 1.3 | 0.87 to 1.19 | 26.3 ×10⁻⁶ cm/s | 2.2 nM | 1.64 | 1.3 nM
4 | CCCS(=O)(=O)Nc1ccc(F)c(Nc2ccc3ncn(C)c(=O)c3c2C)c1Cl [Example 9, N-(2-chloro-3-((3,5-dimethyl-4-oxo-3,4-dihydroquinazolin-6-yl)amino)-4-fluorophenyl)propane-1-sulfonamide] | 1.26 | 0.76 to 1.04 | 27.8 ×10⁻⁶ cm/s | 6.5 nM | 1.23 | 19.7 nM
5 | CCCS(=O)(=O)Nc1cccc(Oc2ccc3ncn(C)c(=O)c3c2C)c1C#N [Example 66, N-{2-Cyano-3-[(3,5-dimethyl-4-oxo-3,4-dihydroquinazolin-6-yl)oxy]phenyl}propane-1-sulfonamide] | 1.7 | – | 23.1 ×10⁻⁶ cm/s | – | 27.9 | 4.08 nM
6 | Cc1c(Oc2c(F)ccc(NS(=O)(=O)CCCF)c2Cl)ccc2ncn(C)c(=O)c12 [Example 67, N-{2-chloro-3-[(3,5-dimethyl-4-oxo-3,4-dihydroquinazolin-6-yl)oxy]-4-fluorophenyl}-3-fluoropropane-1-sulfonamide] | 1.8 | 0.4 to 0.49 | 27.6 ×10⁻⁶ cm/s | 2.8 nM | 1.8 | 2 nM
7 | CCCS(=O)(=O)Nc1cccc(Oc2ccc3ncn(C)c(=O)c3c2C)c1F [Example 68, N-(3-((3,5-dimethyl-4-oxo-3,4-dihydroquinazolin-6-yl)oxy)-2-fluorophenyl)propane-1-sulfonamide] | 1.2 | – | 28.5 ×10⁻⁶ cm/s | – | 1.3 | 33 nM
8 | CCCS(=O)(=O)Nc1ccc(F)c(Oc2ccc3ncn(C)c(=O)c3c2C)c1C#N [Example 69, N-(2-cyano-3-((3,5-dimethyl-4-oxo-3,4-dihydroquinazolin-6-yl)oxy)-4-fluorophenyl)propane-1-sulfonamide] | 4.1 | – | 24.4 ×10⁻⁶ cm/s | – | 23.8 | 0.46 nM
9 | CCCS(=O)(=O)Nc1cc(Cl)cc(Oc2ccc3ncn(C)c(=O)c3c2C)c1F [Example 70, N-(5-chloro-3-((3,5-dimethyl-4-oxo-3,4-dihydroquinazolin-6-yl)oxy)-2-fluorophenyl) propane-1-sulfonamide] | 1.73 | – | 19.1 ×10⁻⁶ cm/s | – | 1.17 | 2.55 nM
10 | CCCS(=O)(=O)Nc1ccc(F)c(Oc2ccc3ncn(C)c(=O)c3c2C)c1F [Example 71, N-(3-((3,5-dimethyl-4-oxo-3,4-dihydroquinazolin-6-yl)oxy)-2,4-difluorophenyl)propane-1-sulfonamide] | 2.4 | – | 25.1 ×10⁻⁶ cm/s | – | 0.86 | 16.4 nM
11 | CCCS(=O)(=O)Nc1cc(F)c(F)c(Oc2ccc3ncn(C)c(=O)c3c2C)c1F [Example 72, N-(3-((3,5-dimethyl-4-oxo-3,4-dihydroquinazolin-6-yl)oxy)-2,4,5-trifluorophenyl)propane-1-sulfonamide] | 1.86 | – | 25.6 ×10⁻⁶ cm/s | – | 1.81 | 7.7 nM
12 | CCCS(=O)(=O)Nc1cc(F)c(F)c(Oc2ccc3ncn(C)c(=O)c3c2C)c1Cl [Example 73, N-(2-chloro-3-((3,5-dimethyl-4-oxo-3,4-dihydroquinazolin-6-yl)oxy)-4,5-difluorophenyl)propane-1-sulfonamide] | 0.93 | – | 47.5 ×10⁻⁶ cm/s | – | 0.3 | 1.55 nM
13 | CCCS(=O)(=O)Nc1cc(F)cc(Oc2ccc3ncn(C)c(=O)c3c2C)c1Cl [Example 74, N-(2-chloro-3-((3,5-dimethyl-4-oxo-3,4-dihydroquinazolin-6-yl)oxy)-5-fluorophenyl)propane-1-sulfonamide] | 1.13 | – | 28.4 ×10⁻⁶ cm/s | – | 0.92 | 3.55 nM
14 | CCCS(=O)(=O)Nc1cc(C)cc(Oc2ccc3ncn(C)c(=O)c3c2C)c1F [Example 75, N-(3-((3,5-dimethyl-4-oxo-3,4-dihydroquinazolin-6-yl)oxy)-2-fluoro-5-methylphenyl)propane-1-sulfonamide] | 1.57 | – | 21.5 ×10⁻⁶ cm/s | – | 0.73 | 74.8 nM
15 | CCCS(=O)(=O)Nc1cc(F)cc(Oc2ccc3ncn(C)c(=O)c3c2C)c1F [Example 76, N-(3-((3,5-dimethyl-4-oxo-3,4-dihydroquinazolin-6-yl)oxy)-2,5-difluorophenyl)propane-1-sulfonamide] | 1.45 | – | 31.8 ×10⁻⁶ cm/s | – | 1.26 | 5.1 nM
16 | Cc1c(Oc2cc(F)cc(NS(=O)(=O)CCCF)c2F)ccc2ncn(C)c(=O)c12 [Example 77, N-(3-((3,5-dimethyl-4-oxo-3,4-dihydroquinazolin-6-yl)oxy)-2,5-difluorophenyl)-3-fluoropropane-1-sulfonamide] | 1.91 | – | 25.6 ×10⁻⁶ cm/s | – | 4.24 | 4.25 nM
17 | CCCS(=O)(=O)Nc1cccc(Oc2ccc3ncn(C)c(=O)c3c2C)c1Cl [Example 78, N-(2-chloro-3-((3,5-dimethyl-4-oxo-3,4-dihydroquinazolin-6-yl)oxy)phenyl)propane-1-sulfonamide] | 1.16 | – | 29 ×10⁻⁶ cm/s | – | 0.96 | 10.8 nM
18 | Cc1c(Oc2cccc(NS(=O)(=O)CCCF)c2Cl)ccc2ncn(C)c(=O)c12 [Example 79, N-(2-chloro-3-((3,5-dimethyl-4-oxo-3,4-dihydroquinazolin-6-yl)oxy)phenyl)-3-fluoropropane-1-sulfonamide] | 2.14 | – | 23.1 ×10⁻⁶ cm/s | – | 1.06 | 8.55 nM
19 | Cc1c(Oc2cccc(NS(=O)(=O)CCCF)c2F)ccc2ncn(C)c(=O)c12 [Example 80, N-(3-((3,5-dimethyl-4-oxo-3,4-dihydroquinazolin-6-yl)oxy)-2-fluorophenyl)-3-fluoropropane-1-sulfonamide] | 1.3 | – | 42.5 ×10⁻⁶ cm/s | – | 2.03 | 20.8 nM
20 | Cn1cnc2ccc(Nc3c(F)ccc(NS(=O)(=O)CCCF)c3Cl)c(Cl)c2c1=O [WO 2012/118492 Ex. 37, reference compound] | 1.9 | 0.12 to 0.15 | – | – | 8.6 | –
21 | Cn1cnc2ccc(Nc3c(F)ccc(NS(=O)(=O)CCCF)c3Cl)cc2c1=O [WO 2012/118492 Example 34, reference compound] | 8.89 | 0.08 to 0.14 | – | – | 7.68 | –
